The source of these data is PMC2438350, “Comparison of four different colorimetric and fluorometric cytotoxicity assays in a zebrafish liver cell line” (BMC Pharmacology, 2008).

Common to all, as to assay type: cell-based, zebrafish (Danio rerio)
The test system of experiment [1] is ZFL cells. Nature of the experiment: CFDA-AM assay, cytotoxicity. Particulars: for EC10 (10% loss of cell viability): 24 h exposure, mean ± SD of three experiments; for EC50: read-out: EC50 (50% loss of cell viability), 24 h exposure, mean ± SD of three experiments. Here is the method: (§1) Each compound was dissolved in dimethyl sulfoxide (DMSO) and diluted in a way that all stock solutions were 200 times concentrated compared to the final test concentrations. Concentration ranges were 30 pM-1.97 μM for BaP, 5 nM-5 μM for Flus, 5 nM-11 μM for Tam, and 0.2–43 μM for 4-OHT, which is in the range of in vivo studies with waterborne exposure of zebrafish for BaP, Tam, and 4-OHT [20-22, 29]. For Flusilazole, no studies on fish are available.
(§2) For finding the optimal biological test conditions, in the beginning different cell densities were applied using two-fold dilution series in the range of 780–100,000 cells/well and cell viability tests were performed after 24 h. […] Thus, cells were plated in 96 well flat-bottom plates at an initial cell density of 25,000 cells/well in 200 μL of medium and allowed to settle for 24 h. In parallel, wells containing only medium without cells were prepared and used later on for background correction. After the pre-incubation period, for each test compound and each concentration, 1 μL of the DMSO stock solutions was added so that the final DMSO content was 0.5%. All tests were performed at least three times and each time in triplicate.
(§3) The fluorogenic indicator dyes alamarBlue® (AB) (BioSource, Invitrogen) and CFDA-AM (5-carboxyfluorescein diacetate acetoxymethyl ester; Molecular Probes, Invitrogen) were used in combination on a third set of cells, since it was shown before that their fluorescent products can be detected at different non-interfering wavelengths. AB was obtained as ready-to-use stock solution, which had to be diluted 200 times to obtain the working solution. CFDA-AM powder was dissolved in DMSO to a stock solution of 4 mM, which was diluted 1000 times to reach the 4 μM working solution. […] For this purpose, cells were exposed to the dyes dissolved in culture medium without FBS or in Earle's-G medium. […] The AB/CFDA-AM assay was then performed according to [10]. In brief, after 24 h of incubation with the test compounds, the medium was aspirated off completely and 100 μL/well of the alamarBlue/CFDA-AM working solution were added. After 30 min of incubation, fluorescence was measured at 530 nm excitation/590 nm emission for AB and 485 nm/535 nm for CFDA-AM, respectively, using a fluorescence plate reader (Infinite 200, Tecan). For data evaluation, average values of triplicates were calculated after background correction and all average values for the treatments referred to the DMSO control, in order to express data as "% cytotoxicity".
(§4) For each single assay, data were evaluated separately for three independent experiments. Dose-response curves were fitted using a nonlinear-regression sigmoidal dose-response curve model provided in the GraphPad Prism software (GraphPad software, Inc., San Diego, USA). EC10 and EC50 values were derived from these fitted curves for the single experiments. Final EC-values (Table 1) were calculated as average of three independent experiments with the standard deviation of the mean indicating the variation. Data from the different assays were statistically compared using One way ANOVA analysis with Tukey's test as post-ANOVA analysis (p < 0.05).

In experiment [2] the test system is ZFL cells. Nature of the experiment: alamarBlue (AB) assay, cytotoxicity. Particulars: for EC10 (10% loss of cell viability): 24 h exposure, mean ± SD of three experiments; for EC50: read-out: EC50 (50% loss of cell viability), 24 h exposure, mean ± SD of three experiments. Here is the method: as §1, §2, §3, §4
In experiment [3] the test system is ZFL cells. Nature of the experiment: LDH assay (released lactate dehydrogenase activity), cytotoxicity. The following applies: for EC10 (10% loss of cell viability): 24 h exposure, 1% FBS, mean ± SD of three experiments; for EC50: read-out: EC50 (50% loss of cell viability), 24 h exposure, 1% FBS, mean ± SD of three experiments. As for the experimental part: as §1, §2
A second set of cells was exposed to the test compounds for the LDH assay, which was performed using the Cytotoxicity Detection Kit LDH (Roche). For this assay, a positive control, leading to 100% cytotoxicity by lysing the cells completely, was included in the assay. The positive control was 2% Triton X-100 solution in the assay medium, as proposed by the manufacturer. After pre-incubation of the cells, before addition of the test compounds, the growth medium was exchanged from medium containing 5% FBS to medium containing only 1% FBS. Then, test compounds in DMSO were dosed and plates incubated as for the other assays for 24 h. For testing the released LDH activity, 100 μL of culture medium were transferred to a new 96 well plate. 100 μL of the reaction solution from the kit, containing the detection dye and the catalyst were then added and absorption was measured after 30 min at 490 nm with 655 nm as reference wavelength in an ELISA reader (Model 680, Biorad). As for the other assays, background values from wells without cells were subtracted and average values for the triplicates calculated. Cytotoxicity was then calculated according to the following equation: Cytotoxicity (%) = (experimental value - DMSO control)/(positive control - DMSO control) × 100.
as §4

Experiment [4] deals with ZFL cells. Nature of the experiment: MTT assay, cytotoxicity. Particulars: for EC10 (10% loss of cell viability): 24 h exposure, mean ± SD of three experiments; for EC50: read-out: EC50 (50% loss of cell viability), 24 h exposure, mean ± SD of three experiments. As for the experimental part: as §1, §2
The MTT assay was performed using the cell proliferation kit I MTT (Roche) according to the manufacturer's protocol. In brief, after 24 h of incubation with the test compounds, 100 μL of medium were removed from each well. Then, 10 μL of the MTT solution were added and plates incubated for 4 h at 28°C. Since the manufacturer recommends incubation at 37°C and ZFL cells have to be incubated at 28°C, we tested different incubation times with MTT (2, 4, and 6 h) to establish optimized conditions. […] After the incubation with MTT, the solubilization solution was added and plates incubated over night. The next day, absorption of the produced formazan was measured at 570 nm with 680 nm as reference wavelength using a microplate reader (Infinite 200, Tecan). For data evaluation, background and reference wavelength corrected absorption values were averaged for the triplicates and expressed as "% cytotoxicity" referring to the untreated control containing only the solvent DMSO.
as §4

With `CC/C(=C(\c1ccccc1)c1ccc(OCCN(C)C)cc1)c1ccccc1` [Tamoxifen], the “EC10 (10% loss of cell viability)” value in the experiment with ZFL cells [1] came out at 2.52 ± 2.14 µM; in the experiment on ZFL cells [2] it was 1.37 ± 0.33 µM; with ZFL cells [3], 0.61 ± 0.67 µM; in the experiment on ZFL cells [4] it was 1.39 ± 0.77 µM.

Regarding `C[Si](Cn1cncn1)(c1ccc(F)cc1)c1ccc(F)cc1` [Flusilazole], the “EC10 (10% loss of cell viability)” value was 6.49 ± 1.08 µM in the experiment on ZFL cells [1], 16.13 ± 11.44 µM in the experiment with ZFL cells [2], 2.28 ± 3.12 µM in the experiment with ZFL cells [3] and 11.29 ± 5.88 µM in the experiment on ZFL cells [4]. Also, the EC50 (in general, the concentration that produces a half-maximal response) in the experiment with ZFL cells [1] (Danio rerio) is 16.7 ± 4.76 µM; in the experiment with ZFL cells [2] (Danio rerio), 26.4 ± 7.3 µM; with ZFL cells [3] (Danio rerio), 17.4 ± 14.5 µM; in the experiment on ZFL cells [4] (Danio rerio), 18.4 ± 14.1 µM.

Take `CC/C(=C(\c1ccc(O)cc1)c1ccc(OCCN(C)C)cc1)c1ccccc1.Cl` [4-OH-Tamoxifen, trans-4-Hydroxy-Tamoxifen]: the “EC10 (10% loss of cell viability)” value in the experiment with ZFL cells [1] is 1.08 ± 0.62 µM; with ZFL cells [2], 0.79 ± 0.40 µM; in the experiment with ZFL cells [3], 0.73 ± 0.55 µM; with ZFL cells [4], 1.49 ± 0.82 µM. Also, the EC50 is 1.73 ± 0.67 µM with ZFL cells [1], 1.17 ± 0.24 µM in the experiment on ZFL cells [2], 1.62 ± 0.01 µM with ZFL cells [3] and 1.78 ± 0.4 µM in the experiment on ZFL cells [4].
